PubChem BioAssay (NCI)
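Interpolation was linear, between the two tested concentrations surrounding the appropriate level; five concentrations were tested over 48 hours in 96-well plates. GI50 marks 50% less growth. TGI marks complete inhibition of growth.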

What was measured:
Experiment in all cases: inhibition of tumour cell growth, NCI panel, 48 h
OVCAR-5 ovarian = test system: OVCAR-5 ovarian
COLO 205 colon = test system: COLO 205 colon
HOP-18 NSCLC = test system: HOP-18 NSCLC
SW-620 colon = test system: SW-620 colon
OVCAR-3 ovarian = test system: OVCAR-3 ovarian
HCT-15 colon = test system: HCT-15 colon
DMS 273 small cell lung = test system: DMS 273 small cell lung
CCRF-CEM leukemia = test system: CCRF-CEM leukemia
NCI-H226 lung = test system: NCI-H226 lung
LOX IMVI melanoma = test system: LOX IMVI melanoma

| SMILES | TGI (OVCAR-5 ovarian) [µM] | TGI (COLO 205 colon) [µM] | TGI (HOP-18 NSCLC) [µM] | TGI (SW-620 colon) [µM] | TGI (OVCAR-3 ovarian) [µM] | TGI (HCT-15 colon) [µM] | TGI (DMS 273 small cell lung) [µM] | TGI (CCRF-CEM leukemia) [µM] | TGI (NCI-H226 lung) [µM] | TGI (LOX IMVI melanoma) [µM] | GI50 (OVCAR-5 ovarian) [µM] | GI50 (COLO 205 colon) [µM] | GI50 (SW-620 colon) [µM] | GI50 (OVCAR-3 ovarian) [µM] | GI50 (HCT-15 colon) [µM] | GI50 (CCRF-CEM leukemia) [µM] | GI50 (LOX IMVI melanoma) [µM] | GI50 (NCI-H226 lung) [µM] |
| --- | --- | --- | --- | --- | --- | --- | --- | --- | --- | --- | --- | --- | --- | --- | --- | --- | --- | --- |
| Cc1ccccc1C(=O)Oc1ccc(Oc2ccccc2)cc1 | > 100 | > 100 | > 100 | > 100 | > 100 | > 100 | > 100 | > 100 | > 100 |  |  |  |  |  |  |  |  |  |
| Cc1cc(NS(=O)(=O)c2ccc(NC(=O)c3cccc4c(N)c5ccccc5nc34)cc2)no1 | > 100 | 53.6 |  | 94.2 | 52.8 | > 100 | 49 | 66.5 | 33.4 | 65.8 |  |  |  |  |  |  |  |  |
| CC(C)C(=O)N[C@@H](C)C(=O)N(Cc1ccc2ccccc2c1)N=O | > 100 | > 100 | 0.0979 | > 100 | > 100 | > 100 | > 100 | > 100 |  | > 100 |  |  |  |  |  |  |  |  |
| N=C(c1ccccc1)N(O)C1CCCCC1 | > 100 | > 100 | > 100 | > 100 |  |  | > 100 |  | > 100 | > 100 |  |  |  |  |  |  |  |  |
| C=C1CC(CCCl)(c2ccccc2)OC1=O (configuration not stated) | > 100 | > 58 | > 59.3 | 39.5 | 71.8 | 39.2 | > 100 | 49.2 | > 100 | > 62.2 |  |  |  |  |  |  |  |  |
| CC1=CC(C)(C)N=C2SC(c3ccc(Cl)cc3)=NN12 | 53.7 | > 100 | 80.5 | > 100 | 92.1 | > 100 | > 100 | > 100 | 55.4 | > 100 |  |  |  |  |  |  |  |  |
| C(=C\c1csnn1)/c1cccnc1 | > 100 | > 100 | > 100 | > 100 | > 100 | > 100 |  |  | > 100 | > 100 |  |  |  |  |  |  |  |  |
| CCCCCCCCCCCC(=O)OCC1OC(n2cc(F)c(=O)[nH]c2=O)C(N)C(OC(=O)CCCCCCCCCCC)C1O (configuration not stated) |  | > 100 |  | > 100 | > 100 | > 100 | > 100 | > 100 |  | > 100 |  |  |  |  |  |  |  |  |
| COc1ccc2c3c1C(=O)CCC3CO2 (configuration not stated) | > 100 | > 100 |  | > 100 | > 100 | > 100 | > 100 | > 100 |  | > 100 |  |  |  |  |  |  |  |  |
| O=c1ccccc2cccc(O)c12 |  | > 100 | > 100 | > 100 | > 100 | > 100 | > 100 | > 100 |  | > 100 |  |  |  |  |  |  |  |  |
| O=C1CCCC/C1=C/C=C/c1ccccc1 | > 100 | > 100 | > 100 | > 100 | > 100 |  |  | > 100 | > 100 | > 100 |  |  |  |  |  |  |  |  |
| CCOC(=O)/N=C(\N)SCc1ccccc1 | > 100 |  | > 100 | > 100 |  | > 100 | > 100 | > 100 | > 100 | > 100 |  |  |  |  |  |  |  |  |
| CCC(Sc1nnc2c3ccccc3n(CC)c2n1)C(=O)Nc1ccccc1OC (configuration not stated) | 11.7 | > 100 |  | > 100 | > 79.4 | > 100 |  | > 100 | > 100 | > 100 | 1.94 | > 100 | > 100 | 8.49 | 66.8 | > 94.9 | > 100 | 53.6 |
